According to patent US8822509B2, “Pain-relieving compositions and uses therefor” (priority 2006, dated 2014):

What was measured:
[1] = test system: cGMP formation in HEK-MOP cells; assay: cGMP levels in MOP-transfected HEK cells (AlphaScreen); format: cell-based
Description: For assessment of cGMP levels in MOP-transfected HEK cells, the methods used were similar to those described in Example 6 with the exception that forskolin was omitted from the incubations. cGMP levels were quantified using AlphaScreen detection kits according to the manufacturer's instructions. Briefly, 5 μL aliquots of the cell suspension were added to individual wells containing 5 μL aliquots of test or control article solutions at the concentration of interest in triplicates in 384-well plates and incubated for 30 min at 37° C. cGMP standard solutions were serially diluted in stimulation buffer to give concentrations in the range of 5×10^−10-5×10^−6 M and were added at 10 μL/well. After cells were lysed with lysis buffer, 5 μL aliquots of acceptor bead mix (10 μl/mL of acceptor beads and 1/3000 anti-cGMP antibody for cGMP detection in lysis buffer) were added to each well. After plates were incubated in the dark at room temperature for 60 min, 5 μL aliquots of donor bead mix (10 μL/mL of donor beads and 0.3 nM biotinylated cGMP in lysis buffer) were added per well and plates were incubated for 16 h in the dark at room temperature. […] was measured using an Envision Multilabel Plate Reader (PerkinElmer Life Sciences).

MOP receptor = target: T1, MOP receptor (Mus musculus, UniProt P42866); assay: Displacement of specific binding of [3H]-DAMGO from membranes of MOP-transfected HEK293 cells
T1 construct: expressed in transfected cells; host or cells: HEK293 (membranes of MOP-HEK cells)
Description: A binding assay was performed to determine whether Compound 1 binds at the MOP receptor.
Stably transfected MOP-HEK cells were plated in a 3×10 cm dish and washed with (3×5 mL) 50 mM Tris-HCl (pH 7.4) when sufficiently confluent. The cells were scraped off the dish in 1.5 mL 50 mM Tris-HCl (pH 7.4) using a transfer pipette and place in 15 mL falcon tubes. The cells were sonicated for a 5 second burst and placed on ice. The protein concentration was estimated. The cells were transferred to a 1.5 mL eppendorf tube and centrifuged at 18,000 rcf for 30 minutes at 4° C. The supernatant was removed and the cells resuspended in 50 mM Tris-HCl (pH 7.4) and 1 mg/mL BSA. An aliquot containing 30-50 μg/200 μL protein was taken and [^3H]DAMGO was added (200 μL in Tris-HCl, pH 7.4) with varying concentrations of unlabelled [D-Ala^2, N-Me-Phe^4, Gly^5-ol]-enkephalin acetate (DAMGO) or Compound 1 (200 μL in Tris-HCl, pH 7.4), total volume 600 μL. The solution was incubated for 1 hour at room temperature with slow rotation.

[2] = test system: hindpaws of control non-diabetic rats; assay: Antinociception by von Frey PWT in control non-diabetic rats; format: in vivo, Wistar rats; settings: single s.c. bolus; morphine 1.8-21.4 μmol/kg, Compound 1 2-20 fmol/kg
Description: Briefly, baseline PWTs were determined for both hindpaws prior to each antinociceptive testing session in the non-diabetic control group at week 0 as well as in groups of STZ-diabetic rats at 10, 14 and 24 wks.
The PWT vs time data were normalized by subtracting the pre-dosing baseline PWT values for each individual rat to obtain ΔPWT values as follows: Normalized (Δ)PWT value=Post-treatment PWT value−PWT value prior to treatment.
ΔPWT versus time curves were then constructed. Trapezoidal integration was used to estimate ΔPWT AUC values for individual rats in the non-diabetic and STZ-diabetic rat treatment groups. ΔPWT AUC versus dose curves were constructed and GraphPad™ Prism was used to estimate the ˜ED50 values.

STZ-diabetic rats = assay: Behavioural side-effects in STZ-diabetic rats; format: in vivo; settings: Compound 1 800 pmol/kg s.c.; morphine 21 μmol/kg

T1 sequence (P42866 whole entry): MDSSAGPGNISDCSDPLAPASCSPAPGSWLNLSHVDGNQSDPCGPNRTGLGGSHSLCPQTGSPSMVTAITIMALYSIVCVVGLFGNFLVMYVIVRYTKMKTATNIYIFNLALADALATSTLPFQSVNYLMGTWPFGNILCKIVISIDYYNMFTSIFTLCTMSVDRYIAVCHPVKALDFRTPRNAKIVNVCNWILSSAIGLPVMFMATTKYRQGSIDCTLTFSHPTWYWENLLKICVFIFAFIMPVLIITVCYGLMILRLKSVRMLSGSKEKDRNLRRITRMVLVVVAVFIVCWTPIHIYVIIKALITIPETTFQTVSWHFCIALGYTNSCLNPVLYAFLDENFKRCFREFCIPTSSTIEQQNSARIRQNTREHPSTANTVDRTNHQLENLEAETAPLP

SMILES: Cc1c(C=O)no[n+]1[O-] [Compound 1, 4-formyl-3-methyl-1,2,5-oxadiazole-2-oxide]
- cGMP Activity (% of basal cGMP response) ([1]; Compound 1, 1 mM): 159 + 20%
- cGMP Activity (% of basal cGMP response) ([1]; Compound 1, 1 mM + L-Cysteine 5 mM): 185 + 34%
- fold increase in cGMP activity with L-cysteine ([1]; Compound 1, 1 mM + L-Cysteine 5 mM vs alone): (1.2 fold increase)
- stimulation of cGMP formation ([1]; HEK-MOP cells, presence and absence of L-cysteine (5 mM)): comparatively weak stimulation of cGMP formation
- binding to MOP receptors ([3H]-DAMGO displacement) (MOP receptor): does not bind significantly
- antinociception in the hindpaws of control non-diabetic rats [2]: dose-dependent antinociception
- behavioural side-effects at highest dose (STZ-diabetic rats): no discernable side-effects
